Measured values from publication PMC10850145, “Hormonal steroids induce multidrug resistance and stress response genes in Neisseria gonorrhoeae by binding to MtrR” (Nature Communications, 2024).
“And” between values parts separate entries of the source, which are not always exact repeats. Equal entries are not always repeated.

Assays:
[1] = molecular target: T1, MtrR (Neisseria gonorrhoeae, UniProt P39897); test: Isothermal titration calorimetry, ligand binding to MtrR WT; conditions: ITC
T1 construct: Hexa-histidine tag with TEV protease cleavage site (N, cleaved yes); made in house; host or cells: E. coli Rosetta Gami B(DE3) pLysS
T1 sequence (P39897 whole entry): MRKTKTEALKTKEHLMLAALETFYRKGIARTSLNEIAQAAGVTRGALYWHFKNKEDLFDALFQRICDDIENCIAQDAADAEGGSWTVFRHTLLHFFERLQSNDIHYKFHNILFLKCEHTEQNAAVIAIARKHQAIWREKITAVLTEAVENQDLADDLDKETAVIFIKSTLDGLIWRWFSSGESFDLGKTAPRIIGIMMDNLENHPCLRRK

[2] = molecular target: T2, MtrR binding to mtrCDE operator (21mer) (Neisseria gonorrhoeae, UniProt P39897); test: Fluorescence polarization based DNA binding assay, mtrCDE operator; conditions: mtrCDE 21mer + 125 µM steroid
T2 construct: Hexa-histidine tag with TEV protease cleavage site (N, cleaved yes); made in house; host or cells: E. coli Rosetta Gami B(DE3) pLysS
T2 sequence (P39897 whole entry): as above
Protocol: Fluorescence polarization based-DNA binding data were collected using a Panvera Beacon 2000 fluorescence polarization system (Invitrogen) and analyzed with Prism (Graphpad Software 9, 10). Purified MtrR was buffer exchanged into “DNA” binding buffer (150 mM NaCl, 20 mM Tris-HCl pH 7.5, 2.5% glycerol, 1 mM TCEP). […] The reported oligoduplexes containing the rpoH and mtrCDE binding site differ in lengths, 27mer and 21mer, respectively[17],[21]. […] BSA and dI-dC are included as carriers and to control for nonspecific DNA binding. Samples were excited at 490 nm and polarized emissions measured at 530 nm. Controls were run with no protein (DNA ± methanol, hormonal steroids) to ensure that millipolarization values were not affected by experimental conditions alone. The binding affinity of protein for DNA was determined using the following equation: P = Pf + (Pb – Pf) [M] / (Kd + [M]) where P is the measured polarization, Pf is the polarization of free DNA, Pb is the polarization of the completely bound DNA, Kd is the equilibrium dissociation constant, and M is the concentration of protein. Pb and Kd were determined by nonlinear least-squares analysis. At least three independent experimental measurements were averaged for each reported binding constant.

[3] = system: FA19 mtrD::kan (KH14); test: MIC of steroidal hormones on GC agar, FA19 mtrD::kan (KH14); assay type: cell-based, Neisseria gonorrhoeae
Protocol: To determine the minimal inhibitory concentrations (MICs) by the steroidal hormones and their effect on antimicrobial susceptibility, 5 x 10^5 CFU and 1:5 serial dilutions of gonococcal strains were spotted on GC agar plates containing different concentrations of antibiotics and/or hormones as indicated. Antimicrobial susceptibility was assessed after 24 h incubation.
Table S1. Steroidal hormones are substrates of the MtrCDE efflux pump
Progesterone Testosterone
*Minimal inhibition concentration is defined by the lowest concentration at which visible growth is […]

[4] = system: FA19-rpoH-lacZ; test: Gonococcal growth in liquid culture (GC broth) with hormones (Fig S7)

C[C@]12CC[C@H]3[C@@H](CCC4=CC(=O)CC[C@@]43C)[C@@H]1CC[C@@H]2O [Testosterone, testosterone]
binding stoichiometry N (ligand per MtrR) [1]: ~ 1
binding stoichiometry N (ligand per MtrR) ([1]; listed as TES): one molecule of steroid per MtrR monomer
Kd ([1]; equilibrium dissociation constant (Kd), MtrR WT, 25 °C, 1% MeOH): 2260 nM and ~2260 nM
fluorescence polarization, MtrR titration ([2]; MtrR WT dimer 0.00 nM): 0.00 mP
fluorescence polarization, MtrR titration ([2]; MtrR WT dimer 6.35 nM): 2.61 mP and 1.77 mP and 1.84 mP
fluorescence polarization, MtrR titration ([2]; MtrR WT dimer 11.32 nM): 5.67 mP and 3.54 mP and 4.04 mP
fluorescence polarization, MtrR titration ([2]; MtrR WT dimer 16.21 nM): 6.61 mP and 4.54 mP and 5.44 mP
fluorescence polarization, MtrR titration ([2]; MtrR WT dimer 35.50 nM): 8.17 mP and 7.34 mP and 6.54 mP
fluorescence polarization, MtrR titration ([2]; MtrR WT dimer 73.35 nM): 11.31 mP and 10.71 mP and 11.67 mP
fluorescence polarization, MtrR titration ([2]; MtrR WT dimer 110.67 nM): 14.21 mP and 12.44 mP and 14.87 mP
fluorescence polarization, MtrR titration ([2]; MtrR WT dimer 147.65 nM): 16.64 mP and 15.47 mP and 17.31 mP
fluorescence polarization, MtrR titration ([2]; MtrR WT dimer 220.59 nM): 21.64 mP and 18.07 mP and 21.37 mP
fluorescence polarization, MtrR titration ([2]; MtrR WT dimer 292.55 nM): 24.51 mP and 22.87 mP and 24.21 mP
fluorescence polarization, MtrR titration ([2]; MtrR WT dimer 363.86 nM): 27.31 mP and 26.01 mP and 26.94 mP
fluorescence polarization, MtrR titration ([2]; MtrR WT dimer 434.54 nM): 29.54 mP and 28.57 mP and 30.57 mP
fluorescence polarization, MtrR titration ([2]; MtrR WT dimer 504.61 nM): 32.14 mP and 30.37 mP and 33.41 mP
fluorescence polarization, MtrR titration ([2]; MtrR WT dimer 574.07 nM): 34.11 mP and 32.41 mP and 35.04 mP
fluorescence polarization, MtrR titration ([2]; MtrR WT dimer 711.46 nM): 38.41 mP and 36.24 mP and 38.57 mP
fluorescence polarization, MtrR titration ([2]; MtrR WT dimer 848.00 nM): 41.31 mP and 39.27 mP and 42.47 mP
MIC ([3]; Neisseria gonorrhoeae): 40 µg/mL and 139 µM
effect of mtrD deletion on MIC ([3]; vs FA19): lowered
growth curve reading after BLANKING (testosterone run) ([4]; 0 hr, 0.1 µM): 0.013
growth curve reading, raw replicates (testosterone run) ([4]; 0 hr, 0.1 µM): 0.046
growth curve reading after BLANKING (testosterone run) ([4]; 0 hr, 1 µM): 0.013
growth curve reading, raw replicates (testosterone run) ([4]; 0 hr, 1 µM): 0.046
growth curve reading after BLANKING (testosterone run) ([4]; 0 hr, 10 µM): 0.013
growth curve reading, raw replicates (testosterone run) ([4]; 0 hr, 10 µM): 0.046
growth curve reading after BLANKING (testosterone run) ([4]; 0 hr, 50 µM): 0.013
growth curve reading, raw replicates (testosterone run) ([4]; 0 hr, 50 µM): 0.046
growth curve reading after BLANKING (testosterone run) ([4]; 0 hr, 100 µM): 0.013
growth curve reading, raw replicates (testosterone run) ([4]; 0 hr, 100 µM): 0.046
growth curve reading after BLANKING (testosterone run) ([4]; 2 hr, 0.1 µM): 0.048
growth curve reading, raw replicates (testosterone run) ([4]; 2 hr, 0.1 µM): 0.082 and 0.080 and 0.081
growth curve reading after BLANKING (testosterone run) ([4]; 2 hr, 1 µM): 0.047
growth curve reading, raw replicates (testosterone run) ([4]; 2 hr, 1 µM): 0.077 and 0.081 and 0.082
growth curve reading after BLANKING (testosterone run) ([4]; 2 hr, 10 µM): 0.047
growth curve reading, raw replicates (testosterone run) ([4]; 2 hr, 10 µM): 0.079 and 0.083
growth curve reading after BLANKING (testosterone run) ([4]; 2 hr, 50 µM): 0.049
growth curve reading, raw replicates (testosterone run) ([4]; 2 hr, 50 µM): 0.083 and 0.081
growth curve reading after BLANKING (testosterone run) ([4]; 2 hr, 100 µM): 0.048
growth curve reading, raw replicates (testosterone run) ([4]; 2 hr, 100 µM): 0.089 and 0.075 and 0.078
growth curve reading after BLANKING (testosterone run) ([4]; 3 hr, 0.1 µM): 0.071
growth curve reading after BLANKING (testosterone run) ([4]; 3 hr, 1 µM): 0.076
growth curve reading after BLANKING (testosterone run) ([4]; 3 hr, 10 µM): 0.073
growth curve reading after BLANKING (testosterone run) ([4]; 3 hr, 50 µM): 0.076
growth curve reading after BLANKING (testosterone run) ([4]; 3 hr, 100 µM): 0.077
growth curve reading, raw replicates (testosterone run) ([4]; 3 hr, 100 µM): 0.116
growth curve reading after BLANKING (testosterone run) ([4]; 4.03 hr, 0.1 µM): 0.095
growth curve reading, raw replicates (testosterone run) ([4]; 4.03 hr, 0.1 µM): 0.117
growth curve reading after BLANKING (testosterone run) ([4]; 4.03 hr, 1 µM): 0.101
growth curve reading after BLANKING (testosterone run) ([4]; 4.03 hr, 10 µM): 0.099
growth curve reading after BLANKING (testosterone run) ([4]; 4.03 hr, 50 µM): 0.102
growth curve reading after BLANKING (testosterone run) ([4]; 4.03 hr, 100 µM): 0.108
growth curve reading, raw replicates (testosterone run) ([4]; 4.03 hr, 100 µM): 0.148
growth curve reading after BLANKING (testosterone run) ([4]; 5.03 hr, 0.1 µM): 0.121
growth curve reading, raw replicates (testosterone run) ([4]; 5.03 hr, 0.1 µM): 0.160 and 0.163
growth curve reading after BLANKING (testosterone run) ([4]; 5.03 hr, 1 µM): 0.127
growth curve reading, raw replicates (testosterone run) ([4]; 5.03 hr, 1 µM): 0.163 and 0.161 and 0.157
growth curve reading after BLANKING (testosterone run) ([4]; 5.03 hr, 10 µM): 0.125
growth curve reading, raw replicates (testosterone run) ([4]; 5.03 hr, 10 µM): 0.164 and 0.157 and 0.153
growth curve reading after BLANKING (testosterone run) ([4]; 5.03 hr, 50 µM): 0.130
growth curve reading, raw replicates (testosterone run) ([4]; 5.03 hr, 50 µM): 0.161 and 0.162 and 0.165
growth curve reading after BLANKING (testosterone run) ([4]; 5.03 hr, 100 µM): 0.139
growth curve reading, raw replicates (testosterone run) ([4]; 5.03 hr, 100 µM): 0.174 and 0.161 and 0.181
growth curve reading after BLANKING (testosterone run) ([4]; 6.03 hr, 0.1 µM): 0.152
growth curve reading, raw replicates (testosterone run) ([4]; 6.03 hr, 0.1 µM): 0.171 and 0.189 and 0.195
growth curve reading after BLANKING (testosterone run) ([4]; 6.03 hr, 1 µM): 0.157
growth curve reading, raw replicates (testosterone run) ([4]; 6.03 hr, 1 µM): 0.195 and 0.191 and 0.185
growth curve reading after BLANKING (testosterone run) ([4]; 6.03 hr, 10 µM): 0.151
growth curve reading, raw replicates (testosterone run) ([4]; 6.03 hr, 10 µM): 0.192 and 0.181 and 0.179
growth curve reading after BLANKING (testosterone run) ([4]; 6.03 hr, 50 µM): 0.161
growth curve reading, raw replicates (testosterone run) ([4]; 6.03 hr, 50 µM): 0.192 and 0.195
growth curve reading after BLANKING (testosterone run) ([4]; 6.03 hr, 100 µM): 0.177
growth curve reading, raw replicates (testosterone run) ([4]; 6.03 hr, 100 µM): 0.198
growth curve reading after BLANKING (testosterone run) ([4]; 7.03 hr, 0.1 µM): 0.177
growth curve reading, raw replicates (testosterone run) ([4]; 7.03 hr, 0.1 µM): 0.195
growth curve reading after BLANKING (testosterone run) ([4]; 7.03 hr, 1 µM): 0.182
growth curve reading, raw replicates (testosterone run) ([4]; 7.03 hr, 1 µM): 0.210
growth curve reading after BLANKING (testosterone run) ([4]; 7.03 hr, 10 µM): 0.178
growth curve reading, raw replicates (testosterone run) ([4]; 7.03 hr, 10 µM): 0.205
growth curve reading, raw replicates (testosterone run) ([4]; 7.03 hr, 100 µM): 0.250
growth curve reading after BLANKING (testosterone run) ([4]; 7.3 hr, 100 µM): 0.226
growth curve reading, raw replicates (testosterone run) ([4]; 7.3 hr, 100 µM): 0.266 and 0.272
growth curve reading after BLANKING (testosterone run) ([4]; […], 0.1 µM): 0.028
growth curve reading after BLANKING (testosterone run) ([4]; […], 1 µM): 0.027
growth curve reading after BLANKING (testosterone run) ([4]; […], 10 µM): 0.026
growth curve reading after BLANKING (testosterone run) ([4]; […], 50 µM): 0.026
growth curve reading after BLANKING (testosterone run) ([4]; […], 100 µM): 0.025
